Laboratory results published in the NIST ThermoML archive (doi:10.1021/je0499723).
Numbers after ± are expanded uncertainties. Each block holds one compound with its values, some of them ahead of it.

What was measured:
[1] = Liquid; for Critical pressure: Direct measurement; for Critical temperature: Visual observation in an unstirred cell
[2] = xn = mol fraction of the nth substance listed; settings: Liquid

Compound: COC(F)(F)F [trifluoromethoxymethane]
Critical density [1]: 459 ± 11 kg/m3
Critical pressure [1]: 3640 ± 12 kPa
Critical temperature [1]: 377.92 ± 0.16 K

Compound: FC(F)C(F)C(F)(F)F (stereo not drawn) [1,1,1,2,3,3-hexafluoropropane]
Critical density [1]: 562 ± 13 kg/m3
Critical pressure [1]: 3416 ± 12 kPa
Critical temperature [1]: 412.41 ± 0.16 K

Compound: COC(F)(F)F [trifluoromethoxymethane] + FC(F)C(F)(F)F
Critical density ([2]; x1 = 0.1859): 555 ± 13 kg/m3
Critical density ([2]; x1 = 0.3073): 523 ± 12 kg/m3
Critical density ([2]; x1 = 0.5185): 515 ± 12 kg/m3
Critical density ([2]; x1 = 0.7094): 491 ± 11 kg/m3
Critical density ([2]; x1 = 0.8305): 479 ± 11 kg/m3
Critical density ([2]; x1 = 1): 459 ± 11 kg/m3

Compound: COC(F)(F)F [trifluoromethoxymethane] + FCC(F)(F)F
Critical density ([2]; x1 = 0.1649): 508 ± 12 kg/m3
Critical density ([2]; x1 = 0.2914): 492 ± 11 kg/m3
Critical density ([2]; x1 = 0.4897): 486 ± 11 kg/m3
Critical density ([2]; x1 = 0.6543): 480 ± 11 kg/m3
Critical density ([2]; x1 = 0.8151): 468 ± 11 kg/m3
Critical density ([2]; x1 = 1): 459 ± 11 kg/m3

Critical density [1]: 598 ± 14 kg/m3
Critical pressure [1]: 2930 ± 12 kPa
Critical temperature [1]: 375 ± 0.16 K
Compound: FC(C(F)(F)F)C(F)(F)F [1,1,1,2,3,3,3-heptafluoropropane]

Compound: FC(F)C(F)(F)F [pentafluoroethane]
Critical density [1]: 560 ± 13 kg/m3
Critical pressure [1]: 3617 ± 12 kPa
Critical temperature [1]: 339.2 ± 0.16 K

Critical density ([2]; x2 = 0): 598 ± 14 kg/m3
Compound: FC(C(F)(F)F)C(F)(F)F [1,1,1,2,3,3,3-heptafluoropropane] + COC(F)(F)F

Compound: COC(F)(F)F [trifluoromethoxymethane] + FC(C(F)(F)F)C(F)(F)F
Critical density ([2]; x1 = 0.1647): 574 ± 13 kg/m3
Critical density ([2]; x1 = 0.3999): 543 ± 13 kg/m3
Critical density ([2]; x1 = 0.4999): 526 ± 12 kg/m3
Critical density ([2]; x1 = 0.6664): 508 ± 12 kg/m3
Critical density ([2]; x1 = 0.8165): 486 ± 11 kg/m3
Critical density ([2]; x1 = 1): 459 ± 11 kg/m3

Compound: FC(F)C(F)C(F)(F)F (stereo not drawn) [1,1,1,2,3,3-hexafluoropropane] + COC(F)(F)F
Critical density ([2]; x2 = 0): 562 ± 13 kg/m3
Critical density ([2]; x2 = 0.2452): 545 ± 13 kg/m3
Critical density ([2]; x2 = 0.3348): 541 ± 13 kg/m3
Critical density ([2]; x2 = 0.5434): 518 ± 12 kg/m3
Critical density ([2]; x2 = 0.7338): 497 ± 12 kg/m3
Critical density ([2]; x2 = 0.8497): 476 ± 11 kg/m3

Compound: FCC(F)(F)F [1,1,1,2-tetrafluoroethane] + COC(F)(F)F
Critical density ([2]; x2 = 0): 508 ± 12 kg/m3

Compound: COC(F)(F)F [trifluoromethoxymethane] + FC(F)C(F)C(F)(F)F
Critical density ([2]; x1 = 1): 459 ± 11 kg/m3

Compound: FCC(F)(F)F [1,1,1,2-tetrafluoroethane]
Critical density [1]: 508 ± 12 kg/m3
Critical pressure [1]: 4053 ± 12 kPa
Critical temperature [1]: 374.13 ± 0.16 K

Compound: FC(F)C(F)(F)F [pentafluoroethane] + COC(F)(F)F
Critical density ([2]; x2 = 0): 560 ± 13 kg/m3
